From patent US20250354096A1, “IN VITRO DEVICE FOR VASCULARIZED MICROFLUIDIC MODELING OF OSTEOCHONDRAL UNIT” (CFD Research Corporation, priority 2024, published 2025) come the findings set out here.

Assay [1] deals with MMPs (catabolic genes related to OA) in bone and cartilage channels. As to the kind of experiment: qPCR of MMP changes in OC device after defined inflammatory cytokines and drug candidate. Format: cell-based, human. The following applies: combination of defined inflammatory cytokines for 24 hours, then Tyrphostin-9; versus no treatment and cytokine alone; FIGS. 11A-11F. The text has this:
The qPCR data from extracted cells was obtained from the cells that can be individually extracted on a per-channel basis so that tissues can be analyzed separately. […] Statistical significance determined by Kruskal-Wallis non-parametric test followed by Dunn's post hoc. * p<0.05, ** p<0.01, and *** p<0.001. FIGS. 10A, 10C, and 10E show bone. FIGS. 10B, 10D, and 10F show cartilage.
FIGS. 11A-11F include data that show the MMP changes in response to the combination of defined cytokines and a drug candidate. Devices were exposed to a combination of defined inflammatory cytokines for 24 hours. After 24 hours, the devices were exposed to either fresh medium without cytokines, or to Tyrphostin-9 (TY9), a candidate compound with potential anti-inflammatory effects under consideration as a palliative for osteoarthritis (OA). […] Thus, the device can be used to screen for drugs to treat OA.

Assay [2] relates to tri-culture of hMSC derived chondrocytes, hMSC derived osteoblasts and HUVEC. As to the kind of experiment: Inflammatory assay: oxidative stress (CellROX Orange ROS) in tri-culture OC device. Format: cell-based, human. The following applies: 100 ng/mL LPS perfused into channel 3, no RAP; 4 hours without flow; versus control; n=3; FIG. 8. The protocol:
In the tri-culture device, OA-like cues were supplied to observe i) oxidative stress induced by LPS conditioning, and ii) the reduction of the oxidative stress in the simultaneous presence of LPS and the anti-inflammatory drug Rapamycin (RAP). Thus, three conditions were investigated: no insult (control,-LPS-RAP), insult (+LPS−RAP), and insult plus treatment (+LPS+RAP). For the insult, the medium was exchanged in established devices with 100 ng/mL LPS perfused into channel 3 to maximize inflammation across the device by supplying LPS in the closest proximity to both bone and vasculature. […]
Resultant oxidative stress was measured by image processing after four hours by the CellROX™ Orange Reactive Oxygen Species Detection Kit (Thermo Fisher), a fluorometric reactive oxygen species (ROS) assay, according to the manufacture's protocol. […] The same microscope was used to capture images for each experiment and exposure and other microscope settings were kept constant to allow quantitative comparisons between micrographs. Quantitative measurement of relative ROS was conducted by image analysis via ImageJ and Matlab®. Briefly, for each condition (i.e., i)-LPS-RAP; ii)+LPS-RAP; iii)+LPS+RAP) images were split into three regions of interest (ROIs), representing the three channel of the devices (vasculature, bone, cartilage), that were separately analyzed. […]

For the molecule `CC(C)(C)c1cc(C=C(C#N)C#N)cc(C(C)(C)C)c1O` [Tyrphostin-9], the “MMP changes (fold change) / inflammatory condition” value in assay [1] is listed as “inflammatory condition is improved”.

Consider lipopolysaccharide [LPS], for which the “oxidative stress of the cells (relative ROS, normalized image intensity)” value in assay [2] was “increases the oxidative stress of the cells in all the compartment”.
